According to US11117892B2, “Pyrrolo-pyridine derivative compound, method for preparing same, and pharmaceutical composition containing same as active ingredient for prevention or treatment of protein kinase-related diseases” (DAEGU-GYEONGBUK MEDICAL INNOVATION FOUNDATION, priority 2017, dated 2021):

Columns and labels:
Experiment in all cases: scanMAX Kinase assay panel
Assay type in all cases: binding
Details in all cases: read-out: % control
[1] = target: p38-gamma (Homo sapiens (Human), UniProt P53778)
Method in brief: (§1)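 % control read-out: DMSO vehicle = 100%, positive control = 0%, test compound scaled between these two. Selectivity profiling was done on the scanMAX kinase panel.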

[2] = target: PIP5K1C (Homo sapiens (Human), UniProt O60331)
Method in brief: as §1

[3] = target: DMPK2 (Homo sapiens (Human), UniProt Q6DT37)
Method in brief: as §1

[4] = target: RIOK3 (Homo sapiens (Human), UniProt O14730)
Method in brief: as §1

[5] = target: YSK1 (Homo sapiens (Human), UniProt O00506)
Method in brief: as §1

[6] = target: ROCK2 (Homo sapiens (Human), UniProt O75116)
Method in brief: as §1

[7] = target: MYO3A (Homo sapiens (Human), UniProt Q8NEV4)
Method in brief: as §1

[8] = target: GCN2(Kin.Dom.2, S808G) (Homo sapiens (Human), UniProt Q9P2K8, S808G)
GCN2(Kin.Dom.2, S808G), sequence (Q9P2K8 590-1001 S808G): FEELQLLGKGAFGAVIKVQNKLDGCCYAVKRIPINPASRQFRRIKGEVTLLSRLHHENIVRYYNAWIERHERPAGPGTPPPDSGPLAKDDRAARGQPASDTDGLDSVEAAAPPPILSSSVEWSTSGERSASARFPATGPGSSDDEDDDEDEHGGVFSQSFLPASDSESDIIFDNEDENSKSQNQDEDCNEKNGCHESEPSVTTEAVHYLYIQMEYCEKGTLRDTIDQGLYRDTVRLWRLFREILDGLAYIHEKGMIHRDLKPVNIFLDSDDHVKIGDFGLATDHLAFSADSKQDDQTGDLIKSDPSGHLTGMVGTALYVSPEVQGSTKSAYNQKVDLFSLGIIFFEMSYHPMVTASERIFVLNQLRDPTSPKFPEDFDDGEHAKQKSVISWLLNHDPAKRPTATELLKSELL
Method in brief: as §1

[9] = target: CDKL3 (Homo sapiens (Human), UniProt Q8IVW4)
Method in brief: as §1

[10] = target: DRAK1 (Homo sapiens (Human), UniProt Q9UEE5)
Method in brief: as §1

[11] = target: DAPK1 (Homo sapiens (Human), UniProt P53355)
Method in brief: as §1

[12] = target: MRCKB (Homo sapiens (Human), UniProt Q9Y5S2)
Method in brief: as §1

[13] = target: TSSK3 (Homo sapiens (Human), UniProt Q96PN8)
TSSK3, sequence (Q96PN8 whole entry): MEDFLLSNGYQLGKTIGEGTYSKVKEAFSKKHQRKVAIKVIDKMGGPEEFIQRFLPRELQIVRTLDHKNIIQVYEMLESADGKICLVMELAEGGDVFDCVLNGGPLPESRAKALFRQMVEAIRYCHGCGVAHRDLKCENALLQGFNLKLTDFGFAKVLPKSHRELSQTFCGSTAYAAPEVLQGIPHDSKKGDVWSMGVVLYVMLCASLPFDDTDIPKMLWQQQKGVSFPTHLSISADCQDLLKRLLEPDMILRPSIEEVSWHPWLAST
Method in brief: as §1

[14] = target: AKT2 (Homo sapiens (Human), UniProt P31751)
AKT2, sequence (P31751 whole entry): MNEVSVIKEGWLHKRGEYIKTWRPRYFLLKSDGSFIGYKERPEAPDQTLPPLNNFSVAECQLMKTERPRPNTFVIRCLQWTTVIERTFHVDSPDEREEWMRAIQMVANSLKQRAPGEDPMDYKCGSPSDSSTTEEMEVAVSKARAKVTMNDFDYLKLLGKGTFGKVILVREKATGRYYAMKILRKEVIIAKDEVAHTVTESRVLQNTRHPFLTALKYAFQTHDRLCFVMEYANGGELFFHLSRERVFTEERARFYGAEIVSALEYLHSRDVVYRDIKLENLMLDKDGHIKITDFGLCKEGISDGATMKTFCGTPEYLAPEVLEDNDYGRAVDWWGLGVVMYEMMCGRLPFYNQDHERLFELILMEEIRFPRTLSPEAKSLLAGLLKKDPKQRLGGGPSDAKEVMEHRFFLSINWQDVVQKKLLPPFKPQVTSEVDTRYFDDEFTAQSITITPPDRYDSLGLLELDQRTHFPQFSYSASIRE
Method in brief: as §1

[15] = target: MERTK (Homo sapiens (Human), UniProt Q12866)
Method in brief: as §1

[16] = target: PHKG2 (Homo sapiens (Human), UniProt P15735)
Method in brief: as §1

[17] = target: TAOK3 (Homo sapiens (Human), UniProt Q9H2K8)
Method in brief: as §1

[18] = target: TYK2(JH2domain-pseudokinase) (Homo sapiens (Human), UniProt P29597)
TYK2(JH2domain-pseudokinase), sequence (P29597 589-875): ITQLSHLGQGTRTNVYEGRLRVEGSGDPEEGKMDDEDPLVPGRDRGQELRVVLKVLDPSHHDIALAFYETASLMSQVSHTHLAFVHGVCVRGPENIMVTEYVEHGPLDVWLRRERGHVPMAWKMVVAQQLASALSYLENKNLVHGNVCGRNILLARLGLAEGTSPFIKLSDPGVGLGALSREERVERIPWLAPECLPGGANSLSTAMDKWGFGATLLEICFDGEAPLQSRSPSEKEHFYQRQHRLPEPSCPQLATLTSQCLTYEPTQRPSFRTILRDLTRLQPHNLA
Method in brief: as §1

[19] = target: MAP3K2 (Homo sapiens (Human), UniProt Q9Y2U5)
MAP3K2, sequence (Q9Y2U5 whole entry): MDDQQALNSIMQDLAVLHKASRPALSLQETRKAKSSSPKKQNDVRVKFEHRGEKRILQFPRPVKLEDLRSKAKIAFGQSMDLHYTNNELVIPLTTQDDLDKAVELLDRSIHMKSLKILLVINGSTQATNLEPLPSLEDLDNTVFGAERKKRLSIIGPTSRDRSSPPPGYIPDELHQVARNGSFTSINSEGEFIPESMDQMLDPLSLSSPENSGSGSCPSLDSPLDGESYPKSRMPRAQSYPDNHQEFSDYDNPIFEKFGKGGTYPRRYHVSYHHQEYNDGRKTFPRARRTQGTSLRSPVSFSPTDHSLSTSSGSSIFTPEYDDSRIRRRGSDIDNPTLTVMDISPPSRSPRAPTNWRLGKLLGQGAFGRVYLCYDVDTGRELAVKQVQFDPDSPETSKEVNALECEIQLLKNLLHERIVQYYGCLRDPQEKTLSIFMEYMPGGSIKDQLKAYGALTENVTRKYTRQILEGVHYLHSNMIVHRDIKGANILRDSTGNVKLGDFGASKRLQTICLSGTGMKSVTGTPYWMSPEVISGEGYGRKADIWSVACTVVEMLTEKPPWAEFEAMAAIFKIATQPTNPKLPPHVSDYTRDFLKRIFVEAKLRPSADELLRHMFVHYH
Method in brief: as §1

[20] = target: MAP3K3 (Homo sapiens (Human), UniProt Q99759)
Method in brief: as §1

[21] = target: MEK3 (Homo sapiens (Human), UniProt P46734)
MEK3, sequence (P46734 whole entry): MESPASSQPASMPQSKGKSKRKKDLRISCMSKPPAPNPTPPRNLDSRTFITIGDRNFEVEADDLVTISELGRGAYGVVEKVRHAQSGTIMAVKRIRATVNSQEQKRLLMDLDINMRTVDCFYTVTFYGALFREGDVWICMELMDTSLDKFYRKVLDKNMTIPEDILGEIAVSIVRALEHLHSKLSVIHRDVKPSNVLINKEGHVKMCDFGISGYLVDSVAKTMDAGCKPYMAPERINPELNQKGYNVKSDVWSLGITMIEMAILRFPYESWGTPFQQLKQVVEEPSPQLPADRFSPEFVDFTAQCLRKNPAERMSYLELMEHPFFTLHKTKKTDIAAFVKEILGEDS
Method in brief: as §1

[22] = target: PRKCE (Homo sapiens (Human), UniProt Q02156)
Method in brief: as §1

[23] = target: LYN (Homo sapiens (Human), UniProt P07948)
Method in brief: as §1

[24] = target: FLT4 (Homo sapiens (Human), UniProt P35916)
FLT4, sequence (P35916 25-1363): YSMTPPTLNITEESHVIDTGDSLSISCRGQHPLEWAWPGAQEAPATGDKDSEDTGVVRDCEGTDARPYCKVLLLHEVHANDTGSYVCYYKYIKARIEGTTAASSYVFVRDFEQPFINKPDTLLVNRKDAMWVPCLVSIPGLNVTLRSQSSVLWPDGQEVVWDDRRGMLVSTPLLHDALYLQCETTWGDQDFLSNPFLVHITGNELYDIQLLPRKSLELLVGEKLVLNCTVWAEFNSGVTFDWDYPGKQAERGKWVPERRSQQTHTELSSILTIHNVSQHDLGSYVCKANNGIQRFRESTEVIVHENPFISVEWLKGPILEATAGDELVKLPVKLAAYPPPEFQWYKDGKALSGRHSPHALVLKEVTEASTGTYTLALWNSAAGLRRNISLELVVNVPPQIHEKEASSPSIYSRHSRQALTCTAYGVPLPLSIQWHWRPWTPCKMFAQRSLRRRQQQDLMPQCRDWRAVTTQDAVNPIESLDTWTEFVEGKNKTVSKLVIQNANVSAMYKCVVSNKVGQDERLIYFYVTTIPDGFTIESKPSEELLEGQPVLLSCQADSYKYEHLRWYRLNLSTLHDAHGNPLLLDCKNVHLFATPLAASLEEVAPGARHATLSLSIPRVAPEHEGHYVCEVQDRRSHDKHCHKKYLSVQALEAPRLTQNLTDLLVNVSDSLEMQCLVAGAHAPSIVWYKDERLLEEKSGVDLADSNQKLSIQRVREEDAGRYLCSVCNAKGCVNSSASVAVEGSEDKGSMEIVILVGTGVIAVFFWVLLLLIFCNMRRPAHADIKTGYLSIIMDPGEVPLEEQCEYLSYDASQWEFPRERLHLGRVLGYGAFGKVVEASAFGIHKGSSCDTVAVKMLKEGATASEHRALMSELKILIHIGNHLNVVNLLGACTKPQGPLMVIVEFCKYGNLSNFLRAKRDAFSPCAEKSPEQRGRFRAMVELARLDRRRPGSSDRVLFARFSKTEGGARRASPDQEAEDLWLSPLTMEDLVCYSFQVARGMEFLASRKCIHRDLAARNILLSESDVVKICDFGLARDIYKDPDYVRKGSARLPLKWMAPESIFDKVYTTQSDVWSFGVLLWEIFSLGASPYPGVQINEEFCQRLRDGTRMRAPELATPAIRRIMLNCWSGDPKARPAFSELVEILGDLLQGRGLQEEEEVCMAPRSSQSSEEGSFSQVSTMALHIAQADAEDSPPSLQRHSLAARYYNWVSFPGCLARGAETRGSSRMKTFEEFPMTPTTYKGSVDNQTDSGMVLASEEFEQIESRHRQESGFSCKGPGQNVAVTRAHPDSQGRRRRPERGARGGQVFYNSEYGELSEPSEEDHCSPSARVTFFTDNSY
Method in brief: as §1

[25] = target: MARK4 (Homo sapiens (Human), UniProt Q96L34)
Method in brief: as §1

[26] = target: STK33 (Homo sapiens (Human), UniProt Q9BYT3)
Method in brief: as §1

[27] = target: NEK4 (Homo sapiens (Human), UniProt P51957)
Method in brief: as §1

[28] = target: MYLK (Homo sapiens (Human), UniProt Q15746)
Method in brief: as §1

[29] = target: CSF1R (Homo sapiens (Human), UniProt P07333)
Method in brief: as §1

[30] = target: NIM1 (Homo sapiens (Human), UniProt Q8IY84)
Method in brief: as §1

[31] = target: BMPR1B (Homo sapiens (Human), UniProt O00238)
Method in brief: as §1

[32] = target: FLT3(D835Y) (Homo sapiens (Human), UniProt P36888, D835Y)
Method in brief: as §1

[33] = target: ABL1(E255K)-phosphorylated (Homo sapiens (Human), UniProt P00519, E255K)
Method in brief: as §1

[34] = target: PIK3CG (Homo sapiens (Human), UniProt P48736)
PIK3CG, sequence (P48736 whole entry): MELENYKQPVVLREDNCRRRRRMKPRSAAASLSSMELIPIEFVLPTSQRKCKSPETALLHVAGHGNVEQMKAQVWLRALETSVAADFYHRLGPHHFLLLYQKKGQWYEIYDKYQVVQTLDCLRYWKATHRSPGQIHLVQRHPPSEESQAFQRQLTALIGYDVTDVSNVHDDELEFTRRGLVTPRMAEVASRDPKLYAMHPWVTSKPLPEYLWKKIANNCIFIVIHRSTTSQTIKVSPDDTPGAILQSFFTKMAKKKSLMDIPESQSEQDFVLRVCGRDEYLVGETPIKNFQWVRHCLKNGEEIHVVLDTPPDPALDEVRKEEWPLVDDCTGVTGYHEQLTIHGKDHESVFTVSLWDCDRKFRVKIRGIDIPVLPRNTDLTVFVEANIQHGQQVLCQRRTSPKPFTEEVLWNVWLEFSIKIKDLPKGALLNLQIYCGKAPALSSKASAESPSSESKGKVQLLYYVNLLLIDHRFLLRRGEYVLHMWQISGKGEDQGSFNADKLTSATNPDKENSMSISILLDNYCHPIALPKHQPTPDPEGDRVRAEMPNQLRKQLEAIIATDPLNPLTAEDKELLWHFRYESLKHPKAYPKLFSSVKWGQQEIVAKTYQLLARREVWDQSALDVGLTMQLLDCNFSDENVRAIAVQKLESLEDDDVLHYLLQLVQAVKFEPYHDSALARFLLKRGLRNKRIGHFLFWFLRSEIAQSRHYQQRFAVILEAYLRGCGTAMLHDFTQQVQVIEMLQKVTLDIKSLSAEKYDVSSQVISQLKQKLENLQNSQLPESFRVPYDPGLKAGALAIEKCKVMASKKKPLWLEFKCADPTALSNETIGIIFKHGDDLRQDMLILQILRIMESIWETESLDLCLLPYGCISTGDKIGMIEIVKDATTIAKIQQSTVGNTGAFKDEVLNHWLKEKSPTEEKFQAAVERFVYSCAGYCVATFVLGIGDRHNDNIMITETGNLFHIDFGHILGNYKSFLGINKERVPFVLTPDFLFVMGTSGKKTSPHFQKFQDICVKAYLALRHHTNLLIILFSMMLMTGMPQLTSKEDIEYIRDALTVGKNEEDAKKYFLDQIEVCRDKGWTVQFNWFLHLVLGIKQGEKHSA
Method in brief: as §1

[35] = target: PAK6 (Homo sapiens (Human), UniProt Q9NQU5)
Method in brief: as §1

[36] = target: RSK1(Kin.Dom.1-N-terminal) (Homo sapiens (Human), UniProt Q15418)
Method in brief: as §1

[37] = target: CSNK1A1L (Homo sapiens (Human), UniProt Q8N752)
Method in brief: as §1

[38] = target: VEGFR2 (Homo sapiens (Human), UniProt P35968)
Method in brief: as §1

[39] = target: GRK4 (Homo sapiens (Human), UniProt P32298)
Method in brief: as §1

| Compound | remaining binding at 1 µM [1] | remaining binding at 1 µM [2] | remaining binding at 1 µM [3] | remaining binding at 1 µM [4] | remaining binding at 1 µM [5] | remaining binding at 1 µM [6] | remaining binding at 1 µM [7] | remaining binding at 1 µM [8] | remaining binding at 1 µM [9] | remaining binding at 1 µM [10] | remaining binding at 1 µM [11] | remaining binding at 1 µM [12] | remaining binding at 1 µM [13] | remaining binding at 1 µM [14] | remaining binding at 1 µM [15] | remaining binding at 1 µM [16] | remaining binding at 1 µM [17] | remaining binding at 1 µM [18] | remaining binding at 1 µM [19] | remaining binding at 1 µM [20] | other results |
| --- | --- | --- | --- | --- | --- | --- | --- | --- | --- | --- | --- | --- | --- | --- | --- | --- | --- | --- | --- | --- | --- |
| CCNc1cc(Nc2ccc(C(=O)N3CCC(N4CCOCC4)CC3)cc2OC)nc2[nH]cc(C#N)c12 [Example 18, 4-(ethylamino)-6-((2-methoxy-4-(4-morpholinopiperidine-1-carbonyl)phenyl)amino)-1H-pyrrolo[2,3-b]pyridine-3-carbonitrile] | 77% | 67% | 85% | 98% | 99% | 7.8% | 71% | 97% | 100% | 56% | 16% | 92% | 30% | 87% | 100% | 12% | 94% | 67% | 79% | 70% | remaining binding at 1 µM [21]: 4.3%; remaining binding at 1 µM [22]: 77%; remaining binding at 1 µM [23]: 90%; remaining binding at 1 µM [24]: 100%; remaining binding at 1 µM [25]: 80%; remaining binding at 1 µM [26]: 17%; remaining binding at 1 µM [27]: 86%; remaining binding at 1 µM [28]: 6%; remaining binding at 1 µM [29]: 73%; remaining binding at 1 µM [30]: 81%; remaining binding at 1 µM [31]: 85%; remaining binding at 1 µM [32]: 82%; remaining binding at 1 µM [33]: 77%; remaining binding at 1 µM [34]: 100%; remaining binding at 1 µM [35]: 98%; remaining binding at 1 µM [36]: 73%; remaining binding at 1 µM [37]: 3.1%; remaining binding at 1 µM [38]: 63%; remaining binding at 1 µM [39]: 100% |
| CCNc1cc(Nc2ccc(C(=O)N3CCC(N4CCOCC4)CC3)cc2OC)nc2[nH]cc(C(F)(F)F)c12 [Example 57, (4-((4-(ethylamino)-3-(trifluoromethyl)-1H-pyrrolo[2,3-b]pyridin-6-yl)amino)-3-methoxyphenyl) (4-morpholinopiperidin-1-yl)methanone] | 77% | 69% | 96% | 96% | 73% | 100% | 70% | 91% | 61% | 67% | 70% | 100% | 91% | 90% | 91% | 23% | 100% | 100% | 100% | 75% | remaining binding at 1 µM [21]: 81%; remaining binding at 1 µM [22]: 64%; remaining binding at 1 µM [23]: 100%; remaining binding at 1 µM [24]: 99%; remaining binding at 1 µM [25]: 76%; remaining binding at 1 µM [26]: 16%; remaining binding at 1 µM [27]: 99%; remaining binding at 1 µM [28]: 7.8%; remaining binding at 1 µM [29]: 72%; remaining binding at 1 µM [30]: 100%; remaining binding at 1 µM [31]: 100%; remaining binding at 1 µM [32]: 88%; remaining binding at 1 µM [33]: 84%; remaining binding at 1 µM [34]: 87%; remaining binding at 1 µM [35]: 78%; remaining binding at 1 µM [36]: 76%; remaining binding at 1 µM [37]: 71%; remaining binding at 1 µM [38]: 95%; remaining binding at 1 µM [39]: 100% |
